Measured values: patent publication US20260297542A1, “HERBICIDE RESISTANT PLANTS” (SYNGENTA CROP PROTECTION AG, priority 2023, published 2026)
Numbering of substitutions follows the chain as printed.

Experiments:
Experiment in all cases: E. coli hemG growth inhibition by herbicide, AtPPO1 variant
Assay type in all cases: cell-based
Details in all cases: read-out: percentage growth inhibition
AtPPO1 C516Q = target: T1, AtPPO1 C516Q (Arabidopsis thaliana, UniProt P55826, C516Q)
T1 construct: expressed in transfected cells; host or cells: E. coli BL21(DE3) hemG, pET24a plasmid
T1 sequence (P55826 35-537 C516Q): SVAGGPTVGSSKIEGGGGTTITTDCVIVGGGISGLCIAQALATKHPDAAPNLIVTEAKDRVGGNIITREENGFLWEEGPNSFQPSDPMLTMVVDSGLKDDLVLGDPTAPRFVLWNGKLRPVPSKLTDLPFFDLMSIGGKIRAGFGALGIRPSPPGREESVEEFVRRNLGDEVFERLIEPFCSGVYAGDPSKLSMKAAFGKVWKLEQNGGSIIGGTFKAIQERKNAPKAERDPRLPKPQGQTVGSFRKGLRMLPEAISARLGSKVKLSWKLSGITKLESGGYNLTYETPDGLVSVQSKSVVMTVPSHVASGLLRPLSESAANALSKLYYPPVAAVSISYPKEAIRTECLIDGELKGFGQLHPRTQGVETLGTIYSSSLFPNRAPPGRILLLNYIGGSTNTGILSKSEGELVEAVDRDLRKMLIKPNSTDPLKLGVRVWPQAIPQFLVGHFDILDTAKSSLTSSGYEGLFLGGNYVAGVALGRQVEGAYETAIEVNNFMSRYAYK
Procedure, shortened: (§1)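 E. coli BL21(DE3) ΔhemG::CmR complemented by AtPPO1 variants (pET24a, T7, E. coli codon-optimised); TB + 0.1 mM IPTG, 1:100 inoculum; 6.25 ppm herbicide 0/E or 0.78 ppm herbicide B vs DMSO; 24 h, 37° C, 250 rpm; OD600 at 24 h → % growth inhibition.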

AtPPO1 P271C = target: T2, AtPPO1 P271C (Arabidopsis thaliana, UniProt P55826, P271C)
T2 construct: expressed in transfected cells; host or cells: E. coli BL21(DE3) hemG (hemG replaced by CmR), pET24a plasmid
T2 sequence (P55826 35-537 P271C): T1 sequence (P55826 35-537 C516Q) with P237C, Q482C
Procedure, shortened: as §1

AtPPO1 S305L = target: T3, AtPPO1 S305L (Arabidopsis thaliana, UniProt P55826, S305L)
T3 construct: expressed in transfected cells; host or cells: E. coli BL21(DE3) hemG (pET24a, T7 promoter)
T3 sequence (P55826 35-537 S305L): T1 sequence (P55826 35-537 C516Q) with S271L, Q482C
Procedure, shortened: as §1

AtPPO1 Y361C = target: T4, AtPPO1 Y361C (Arabidopsis thaliana, UniProt P55826, Y361C)
T4 construct: expressed in transfected cells; host or cells: E. coli BL21(DE3) hemG, pET24a plasmid
T4 sequence (P55826 35-537 Y361C): T1 sequence (P55826 35-537 C516Q) with Y327C, Q482C
Procedure, shortened: as §1

SMILES	inhibition at 6.25 ppm (AtPPO1 C516Q) [%]	inhibition at 6.25 ppm (AtPPO1 P271C) [%]	inhibition at 6.25 ppm (AtPPO1 S305L) [%]	inhibition at 6.25 ppm (AtPPO1 Y361C) [%]	inhibition at 0.78 ppm (AtPPO1 C516Q) [%]	inhibition at 0.78 ppm (AtPPO1 P271C) [%]	inhibition at 0.78 ppm (AtPPO1 S305L) [%]	inhibition at 0.78 ppm (AtPPO1 Y361C) [%]
CC(C)N(C)S(=O)(=O)NC(=O)c1cc(-n2c(=O)cc(C(F)(F)F)n(C)c2=O)c(F)cc1Cl [Herbicide E, saflufenacil]	51	66	39	35				
C#CCN1C(=O)C(F)(F)Oc2cc(F)c(-n3c(=O)n(C)c(=S)n(C)c3=O)cc21 [Herbicide B, trifludimoxazin]					18	24	26	36
CCOC(=O)[C@]1(C)CC(c2cc(-n3c(=O)n(C)c(=S)n(C)c3=O)c(F)cc2Cl)=NO1 [Herbicide D, ethyl (5S)-3-[2-chloro-5-(3,5-dimethyl-2,6-dioxo-4-thioxo-1,3,5-triazinan-1-yl)-4-fluoro-phenyl]-5-methyl-4H-isoxazole-5-carboxylate]	28	24	14	15				
